Results published in US20240246941A1, “SUBSTITUTED 4-(3-AMINOPROP-1-YL)AMINOQUINOLINE ANALOGS AS MODULATORS OF MELANOMA-ASSOCIATED ANTIGEN 11 UBIQUITIN LIGASE” (ST. JUDE CHILDREN'S RESEARCH HOSPITAL, INC., priority 2020, published 2024).
Where two headings read alike, the source gives them in different places.

Molecular target: interaction between GST-MAGEA11 MHD and FAM-PCF11_4 peptide (MAGE-A11:PCF11) (Homo sapiens (Human), UniProt P43364)
Experiment: TR-FRET dose response competition assay for disruption of MAGE-A11:PCF11 binding
In short: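 Competition TR-FRET at room temperature in 50 mM Tris pH 7.5, 20 mM MgCl2, 0.1 mg/ml BSA, 1 mM DTT: final 5 nM GST-MAGEA11 MHD, 5 nM Tb-anti-GST, 200 nM FAM-PCF11_4, 90 min. Ratio 520/490 nm converted to % inhibition; IC50 from sigmoidal fit.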

[1] = Table 8, representative compounds, read-out: TR-FRET IC50
[2] = Dose response TR-FRET screening of nine scaffold groups against MAGE-A11:PCF11, read-out: consensus IC50
[3] = Table 5, dose response TR-FRET screening of 59 quinoline compounds against MAGE-A11:PCF11, read-out: TR-FRET IC50

Sequence of interaction between GST-MAGEA11 MHD and FAM-PCF11_4 peptide (MAGE-A11:PCF11) (P43364 218-429): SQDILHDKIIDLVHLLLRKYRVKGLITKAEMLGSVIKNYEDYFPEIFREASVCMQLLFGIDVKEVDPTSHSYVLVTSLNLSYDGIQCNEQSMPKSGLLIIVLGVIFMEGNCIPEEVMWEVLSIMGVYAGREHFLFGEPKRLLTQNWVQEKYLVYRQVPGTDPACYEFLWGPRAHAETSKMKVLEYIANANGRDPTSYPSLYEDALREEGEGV

Compound	IC50 [1]	IC50 [2]	also measured
FC(F)(F)c1ccccc1CNCCCNc1ccnc2cc(Cl)ccc12 [SJ000520908]	69.9 µM		
Clc1ccc2c(NCCCNCc3ccc4[nH]ccc4c3)ccnc2c1 [SJ000520909-2]		67.1 µM	
Fc1c(F)c(F)c(CNCCCNc2ccnc3cc(Cl)ccc23)c(F)c1F [SJ000520910-1]		69.9 µM	
Fc1c(F)c(F)c(CNCCCNC2CCNC3(Cl)CCC23)c(F)c1F (stereo not drawn) [SJ000520910]	69.9 µM		
Cc1cc(C)c(CNCCCNc2ccnc3cc(Cl)ccc23)c(C)c1 [SJ000520911-2]		68.1 µM	
Cc1cc(C)c(CNCCCNc2ccnc3cc(Cl)ccc23)c(C)c1 [SJ000520911]	68.1 µM		
CCCN(CCCNc1ccnc2cc(C(F)(F)F)ccc12)Cc1ccc(CC)cc1 [SJ000521009-2]			IC50 [3]: > 70 µM
COC(=O)CCCCCNCCCNc1ccnc2cc(Cl)ccc12 [SJ000521021-1]			IC50 [3]: 31.4 µM
FC(F)(F)Oc1cccc(CNCCCNc2ccnc3cc(Cl)ccc23)c1 [SJ000521022-2]		69.9 µM	
FC(F)(F)Oc1cccc(CNCCCNc2ccnc3cc(Cl)ccc23)c1 [SJ000521022]	69.9 µM		
FC(F)(F)c1cccc(CNCCCNc2ccnc3cc(Cl)ccc23)c1 [SJ000521024-1]		69.9 µM	
FC(F)(F)c1cccc(CNCCCNc2ccnc3cc(Cl)ccc23)c1 [SJ000521024]	69.9 µM		
FC(F)(F)Oc1ccc(CNCCCNc2ccnc3cc(Cl)ccc23)cc1 [SJ000521025-1]		69.9 µM	
FC(F)(F)Oc1ccc(CNCCCNc2ccnc3cc(Cl)ccc23)cc1 [SJ000521025]	69.9 µM		
COc1ccc(F)c(CNCCCNc2ccnc3cc(Cl)ccc23)c1 [SJ000521030-1]		69.9 µM	
COc1ccc(F)c(CNCCCNc2ccnc3cc(Cl)ccc23)c1 [SJ000521030]	69.9 µM		
Fc1cccc(C(F)(F)F)c1CNCCCNc1ccnc2cc(Cl)ccc12 [SJ000521031-1]		69.9 µM	
Fc1cccc(C(F)(F)F)c1CNCCCNc1ccnc2cc(Cl)ccc12 [SJ000521031]	69.9 µM		
Clc1ccc2c(NCCCNCc3cc4ccccc4s3)ccnc2c1 [SJ000521032-1]			IC50 [3]: > 70 µM
Clc1ccc2c(NCCCNCc3csc4ccccc34)ccnc2c1 [SJ000521033-1]			IC50 [3]: > 70 µM
COc1ccc(OC(F)(F)F)cc1CNCCCNc1ccnc2cc(Cl)ccc12 [SJ000521035-1]		69.9 µM	
COc1ccc(OC(F)(F)F)cc1CNCCCNc1ccnc2cc(Cl)ccc12 [SJ000521035]	69.9 µM		

Compound	IC50 [1]	IC50 [2]	also measured
COc1ccc(C(F)(F)F)cc1CNCCCNc1ccnc2cc(Cl)ccc12 [SJ000521036-1]		69.9 µM	
COc1ccc(C(F)(F)F)cc1CNCCCNc1ccnc2cc(Cl)ccc12 [SJ000521036]	69.9 µM		
CCc1ccc(CNCCCNc2ccnc3cc(Cl)ccc23)cc1 [SJ000521039-1]		69.9 µM	
CCc1ccc(CNCCCNc2ccnc3cc(Cl)ccc23)cc1 [SJ000521039]	69.9 µM		
FC(F)(F)Oc1cccc(CNCCCNc2ccnc3cc(C(F)(F)F)ccc23)c1 [SJ000521045-2]		69.9 µM	
FC(F)(F)Oc1cccc(CNCCCNc2ccnc3cc(C(F)(F)F)ccc23)c1 [SJ000521045]	69.9 µM		
FC(F)(F)c1cccc(CNCCCNc2ccnc3cc(C(F)(F)F)ccc23)c1 [SJ000521047-1]		69.9 µM	
FC(F)(F)c1cccc(CNCCCNc2ccnc3cc(C(F)(F)F)ccc23)c1 [SJ000521047]	69.9 µM		
FC(F)(F)c1ccc2c(NCCCNCc3cccc4c3OCO4)ccnc2c1 [SJ000521048-1]		69.9 µM	
FC(F)(F)c1ccc2c(NCCCNCc3cccc4c3OCO4)ccnc2c1 [SJ000521048]	69.9 µM		
FC(F)(F)c1ccc2c(NCCCNCc3ccccc3C(F)(F)F)ccnc2c1 [SJ000521049-1]		69.9 µM	
FC(F)(F)c1ccc2c(NCCCNCc3ccccc3C(F)(F)F)ccnc2c1 [SJ000521049]	69.9 µM		
FC(F)(F)Oc1ccc(CNCCCNc2ccnc3cc(C(F)(F)F)ccc23)cc1 [SJ000521050-1]		69.9 µM	
FC(F)(F)Oc1ccc(CNCCCNc2ccnc3cc(C(F)(F)F)ccc23)cc1 [SJ000521050]	69.9 µM		
COc1cccc(F)c1CNCCCNc1ccnc2cc(C(F)(F)F)ccc12 [SJ000521051-1]		69.9 µM	
COc1cccc(F)c1CNCCCNc1ccnc2cc(C(F)(F)F)ccc12 [SJ000521051]	69.9 µM		
COc1ccc(F)cc1CNCCCNc1ccnc2cc(C(F)(F)F)ccc12 [SJ000521052-1]		69.9 µM	
COc1ccc(F)cc1CNCCCNc1ccnc2cc(C(F)(F)F)ccc12 [SJ000521052]	69.9 µM		
FC(F)(F)c1ccc2c(NCCCNCc3ccc4[nH]ccc4c3)ccnc2c1 [SJ000521054-1]		0.397 µM	
FC(F)(F)c1ccc2c(NCCCNCc3cc(Br)cs3)ccnc2c1 [SJ000521056-1]			IC50 [3]: > 70 µM
COc1ccc(F)c(CNCCCNc2ccnc3cc(C(F)(F)F)ccc23)c1 [SJ000521058-1]		69.9 µM	
COc1ccc(F)c(CNCCCNc2ccnc3cc(C(F)(F)F)ccc23)c1 [SJ000521058]	69.9 µM		

Compound	IC50 [1]	IC50 [2]	also measured
Fc1cccc(C(F)(F)F)c1CNCCCNc1ccnc2cc(C(F)(F)F)ccc12 [SJ000521059-1]		69.9 µM	
Fc1cccc(C(F)(F)F)c1CNCCCNc1ccnc2cc(C(F)(F)F)ccc12 [SJ000521059]	69.9 µM		
FC(F)(F)c1ccc2c(NCCCNCc3cc4ccccc4s3)ccnc2c1 [SJ000521060-1]			IC50 [3]: > 70 µM
FC(F)(F)c1ccc2c(NCCCNCc3csc4ccccc34)ccnc2c1 [SJ000521061-1]			IC50 [3]: > 70 µM
COc1ccc(OC(F)(F)F)cc1CNCCCNc1ccnc2cc(C(F)(F)F)ccc12 [SJ000521063-1]		69.9 µM	
COc1ccc(OC(F)(F)F)cc1CNCCCNc1ccnc2cc(C(F)(F)F)ccc12 [SJ000521063]	69.9 µM		
COc1ccc(C(F)(F)F)cc1CNCCCNc1ccnc2cc(C(F)(F)F)ccc12 [SJ000521064-1]		69.1 µM	
COc1ccc(C(F)(F)F)cc1CNCCCNc1ccnc2cc(C(F)(F)F)ccc12 [SJ000521064]	69.1 µM		
Fc1cccc(CNCCCNc2ccnc3cc(C(F)(F)F)ccc23)c1 [SJ000521066-1]		69.9 µM	
Fc1cccc(CNCCCNc2ccnc3cc(C(F)(F)F)ccc23)c1 [SJ000521066]	69.9 µM		
CCc1ccc(CNCCCNc2ccnc3cc(C(F)(F)F)ccc23)cc1 [SJ000521067-1]		40.9 µM	
CCc1ccc(CNCCCNc2ccnc3cc(C(F)(F)F)ccc23)cc1 [SJ000521067]	40.9 µM		
Fc1ccc(CN(CCCCNc2ccnc3cc(Cl)ccc23)Cc2ccccc2)cc1 [SJ000522725-1]			IC50 [3]: > 70 µM
CCCN(CCCNc1c2ccc(Cl)cc2nc2ccc(OC)cc12)Cc1ccc2[nH]ccc2c1 [SJ000522732-2]			IC50 [3]: > 70 µM
CCCN(CCCNc1ccnc2cc(Cl)ccc12)Cc1ccc2[nH]ccc2c1 [SJ000522746-2]			IC50 [3]: 2.8 µM
CCCN(CCCNc1ccnc2cc(Cl)ccc12)Cc1c(C)cc(C)cc1C [SJ000522749-1]			IC50 [3]: > 70 µM
CCCN(CCCNc1ccnc2cc(Cl)ccc12)Cc1ccc(CC)cc1 [SJ000523001-1]			IC50 [3]: > 70 µM
CCCN(CCCNc1ccnc2cc(Cl)ccc12)Cc1cc(C(F)(F)F)ccc1OC [SJ000523012-1]			IC50 [3]: > 70 µM
CCCN(CCCNc1c2ccc(Cl)cc2nc2ccc(OC)cc12)Cc1c(Cl)ccc(Cl)c1Cl [SJ000523021-1]			IC50 [3]: > 70 µM
CCCN(CCCNc1ccnc2cc(Cl)ccc12)Cc1ccc(-c2ccccc2)cc1 [SJ000523039-1]			IC50 [3]: > 70 µM
CCCN(CCCNc1ccnc2cc(Cl)ccc12)Cc1ccc2ccccc2c1 [SJ000523040-1]			IC50 [3]: > 70 µM
CN(C)c1ccc(CNCCCNc2ccnc3cc(Cl)ccc23)c2ccccc12 [SJ000523054-1]		69.9 µM	

Compound	IC50 [1]	IC50 [2]	also measured
Nc1ccccc1CNCCCNc1ccnc2cc(Cl)ccc12 [SJ000523055-1]		69.9 µM	
Nc1ccccc1CNCCCNc1ccnc2cc(Cl)ccc12 [SJ000523055]	69.9 µM		
Clc1ccc2c(NCCCNCc3ccc4c(c3)OCO4)ccnc2c1 [SJ000523056-1]		69.9 µM	
Clc1ccc2c(NCCCNCc3ccc4c(c3)OCO4)ccnc2c1 [SJ000523056]	69.9 µM		
COc1ccc(CNCCCNc2ccnc3cc(Cl)ccc23)cc1 [SJ000523059-1]		69.9 µM	
COc1ccc(CNCCCNc2ccnc3cc(Cl)ccc23)cc1 [SJ000523059]	69.9 µM		
Fc1ccccc1CNCCCNc1ccnc2cc(Cl)ccc12 [SJ000523060-1]		69.9 µM	
Fc1ccccc1CNCCCNc1ccnc2cc(Cl)ccc12 [SJ000523060]	69.9 µM		
Fc1cccc(CNCCCNc2ccnc3cc(Cl)ccc23)c1 [SJ000523061-1]		69.9 µM	
Fc1cccc(CNCCCNc2ccnc3cc(Cl)ccc23)c1 [SJ000523061]	69.9 µM		
Fc1ccc(CNCCCNc2ccnc3cc(Cl)ccc23)cc1 [SJ000523062-1]		69.9 µM	
Fc1ccc(CNCCCNc2ccnc3cc(Cl)ccc23)cc1 [SJ000523062]	69.9 µM		
N#Cc1cccc(CNCCCNc2ccnc3cc(Cl)ccc23)c1 [SJ000523063-1]		69.9 µM	
N#Cc1cccc(CNCCCNc2ccnc3cc(Cl)ccc23)c1 [SJ000523063]	69.9 µM		
Clc1ccc2c(NCCCNCc3ccc(-c4ccccc4)cc3)ccnc2c1 [SJ000523064-1]		34.9 µM	
Clc1ccc2c(NCCCNCc3ccc(-c4ccccc4)cc3)ccnc2c1 [SJ000523064]	34.9 µM		
Clc1ccc2c(NCCCNCc3ccc4ccccc4c3)ccnc2c1 [SJ000523065-1]		69.9 µM	
Clc1ccc2c(NCCCNCc3ccc4ccccc4c3)ccnc2c1 [SJ000523065]	69.9 µM		
Cc1cccc(CNCCCNc2ccnc3cc(Cl)ccc23)c1 [SJ000523066-1]		69.9 µM	
Cc1cccc(CNCCCNc2ccnc3cc(Cl)ccc23)c1 [SJ000523066]	69.9 µM		
COC(=O)c1ccc(CNCCCNc2ccnc3cc(Cl)ccc23)cc1 [SJ000523067-1]		69.9 µM	
